In patent US11254705B2, “Cyclic peptide analogs and conjugates thereof” (Sirenas LLC, priority 2016, dated 2022):

Key:
HCC1954 cells = assay: Inhibition of HCC1954 cell growth (method analogous to BT-474); assay type: cell-based; details: Homo sapiens
Procedure: (§1) BT-474 human mammary gland ductal carcinoma cells were seeded in a clear polystyrene 96-well microculture plate (Corning® Costar® 96-well flat bottom plate, Cat. #3997) in a total volume of 90 μL/well. After 24 hours of incubation in a humidified incubator at 37° C. with 5% CO2 and 95% air, 10 μL of 10×, serially diluted test agents in growth medium were added to each well (10 pt dose response curve, highest concentration 10 μM of test agent). After 72 hours of culture in a humidified incubator at 37° C., in an atmosphere of 5% CO2 and 95% air, the plated cells and Cell Titer-Glo® (Protnega G7571) reagents were brought to room temperature to equilibrate for 30 minutes. 100 μL of Cell Titer-Glo® reagent was added to each well. The plate was shaken for two minutes and then left to equilibrate for ten minutes. The media/Cell Titer-Glo® reagent was transferred to a white polystyrene 96-well microculture plate (Corning® Costar® 96-well flat bottom plate, Cat. #3917) before reading luminescence on a Tecan GENios microplate reader.
(§2) Percent inhibition of cell growth was calculated relative to untreated control wells. The IC50 value for the test agents was determined using Prism 6.05 by curve-fitting of the data using the following four parameter-logistic equation:
(§3) [formula] where Top is the maximal % of control absorbance, Bottom is the minimal % of control absorbance at the highest agent concentration, Y is the % of control absorbance, X is the agent concentration, IC50 is the concentration of agent that inhibits cell growth by 50% compared to the control cells, and n is the slope of the curve.
Inhibitory response of test compounds against HCC1954 cells was determined using a method analogous to that used for BT-474 cells.

[1] = test system: BT-474 human mammary gland ductal carcinoma cells; assay: Inhibition of BT-474 cell growth (Cell Titer-Glo, 72 h); assay type: cell-based; details: BT-474 cells, 72 hours of culture, Cell Titer-Glo luminescence
Procedure: as §1, §2
as §3, with “curve. […]” for “curve.”

Compound	IC50 (HCC1954 cells)	IC50 [1]
C/C=C(\C)[C@H]1OC(=O)[C@@H](C)NC(=O)[C@H]([C@H](C)CC)NC(=O)CN(C)C(=O)[C@@H](Cc2ccccc2)N(C)C(=O)[C@H](C)NC(=O)[C@@H](CC(C)C)OC(=O)/C(C)=C/C[C@H](OC(=O)NCCCO)[C@@H]1C [Compound 1, (2R,5S,8R,14S,17R,20S,21S,22S,E)-8-benzyl-20-((E)-but-2-en-2-yl)-14-((R)-sec-butyl)-2-isobutyl-5,7,10,17,21,25-hexamethyl-3,6,9,12,15,18,26-heptaoxo-1,19-dioxa-4,7,10,13,16-pentaazacyclohexacos-24-en-22-yl (3-hydroxypropyl)carbamate]	0.457 nM	0.0811 nM
C/C=C(\C)[C@H]1OC(=O)[C@@H](C)NC(=O)[C@H]([C@H](C)CC)NC(=O)CN(C)C(=O)[C@@H](Cc2ccccc2)N(C)C(=O)[C@H](C)NC(=O)[C@@H](CC(C)C)OC(=O)/C(C)=C/C[C@H](OC(=O)NCCCCO)[C@@H]1C [Compound 2, (2R,5S,8R,14S,17R,20S,21S,22S,E)-8-benzyl-20-((E)-but-2-en-2-yl)-14-((R)-sec-butyl)-2-isobutyl-5,7,10,17,21,25-hexamethyl-3,6,9,12,15,18,26-heptaoxo-1,19-dioxa-4,7,10,13,16-pentaazacyclohexacos-24-en-22-yl (4-hydroxybutyl)carbamate]	4.95 nM	3.75 nM
C/C=C(\C)[C@H]1OC(=O)[C@@H](C)NC(=O)[C@H]([C@H](C)CC)NC(=O)CN(C)C(=O)[C@@H](Cc2ccccc2)N(C)C(=O)[C@H](C)NC(=O)[C@@H](CC(C)C)OC(=O)/C(C)=C/C[C@H](OC(=O)NCCCCCO)[C@@H]1C [Compound 3, (2R,5S,8R,14S,17R,20S,21S,22S,E)-8-benzyl-20-((E)-but-2-en-2-yl)-14-((R)-sec-butyl)-2-isobutyl-5,7,10,17,21,25-hexamethyl-3,6,9,12,15,18,26-heptaoxo-1,19-dioxa-4,7,10,13,16-pentaazacyclohexacos-24-en-22-yl (5-hydroxypentyl)carbamate]	1.41 nM	0.0843 nM
C/C=C(\C)[C@H]1OC(=O)[C@@H](C)NC(=O)[C@H](C(C)CC)NC(=O)CN(C)C(=O)[C@@H](Cc2ccccc2)N(C)C(=O)[C@H](C)NC(=O)[C@@H](CC(C)C)OC(=O)/C(C)=C/C[C@H](OC(=O)NCCCCCCO)[C@@H]1C (stereo partly drawn) [Compound 4, (2R,5S,8R,14S,17R,20S,21S,22S,E)-8-benzyl-20-((E)-but-2-en-2-yl)-14-((R)-sec-butyl)-2-isobutyl-5,7,10,17,21,25-hexamethyl-3,6,9,12,15,18,26-heptaoxo-1,19-dioxa-4,7,10,13,16-pentaazacyclohexacos-24-en-22-yl(6-hydroxyhexyl)carbamate]	3.21 nM	0.523 nM
C/C=C(\C)[C@H]1OC(=O)[C@@H](C)NC(=O)[C@H](C(C)CC)NC(=O)CN(C)C(=O)[C@@H](Cc2ccccc2)N(C)C(=O)[C@H](C)NC(=O)[C@@H](CC(C)C)OC(=O)/C(C)=C/C[C@H](OC(=O)NCCCCCCCO)[C@@H]1C (stereo partly drawn) [Compound 5, (2R,5S,8R,14S,17R,20S,21S,22S,E)-8-benzyl-20-((E)-but-2-en-2-yl)-14-((R)-sec-butyl)-2-isobutyl-5,7,10,17,21,25-hexamethyl-3,6,9,12,15,18,26-heptaoxo-1,19-dioxa-4,7,10,13,16-pentaazacyclohexacos-24-en-22-yl(7-hydroxyheptyl)carbamate]	1.11 nM	0.329 nM
C/C=C(\C)[C@H]1OC(=O)[C@@H](C)NC(=O)[C@H]([C@H](C)CC)NC(=O)CN(C)C(=O)[C@@H](Cc2ccccc2)N(C)C(=O)[C@H](C)NC(=O)[C@@H](CC(C)C)OC(=O)/C(C)=C/C[C@H](OC(=O)NCCCCCCCCO)[C@@H]1C [Compound 6, (2R,5S,8R,14S,17R,20S,21S,22S,E)-8-benzyl-20-((E)-but-2-en-2-yl)-14-((R)-sec-butyl)-2-isobutyl-5,7,10,17,21,25-hexamethyl-3,6,9,12,15,18,26-heptaoxo-1,19-dioxa-4,7,10,13,16-pentaazacyclohexacos-24-en-22-yl (8-hydroxyoctyl)carbamate]	1.66 nM	0.93 nM
C/C=C(\C)[C@H]1OC(=O)[C@@H](C)NC(=O)[C@H]([C@H](C)CC)NC(=O)CN(C)C(=O)[C@@H](Cc2ccccc2)N(C)C(=O)[C@H](C)NC(=O)[C@@H](CC(C)C)OC(=O)/C(C)=C/C[C@H](OC(=O)N(C)CCCCCCNC)[C@@H]1C [Compound 8, (2R,5S,8R,14S,17R,20S,21S,22S,E)-8-benzyl-20-((E)-but-2-en-2-yl)-14-((R)-sec-butyl)-2-isobutyl-5,7,10,17,21,25-hexamethyl-3,6,9,12,15,18,26-heptaoxo-1,19-dioxa-4,7,10,13,16-pentaazacyclohexacos-24-en-22-yl methyl(6-(methylamino)hexyl)carbamate]	31.9 nM	8.66 nM
C/C=C(\C)[C@H]1OC(=O)[C@@H](C)NC(=O)[C@H]([C@H](C)CC)NC(=O)CN(C)C(=O)[C@@H](Cc2ccccc2)N(C)C(=O)[C@H](C)NC(=O)[C@@H](CC(C)C)OC(=O)/C(C)=C/C[C@H](OC(=O)N2CCN(CCO)CC2)[C@@H]1C [Compound 9, (2R,5S,8R,14S,17R,20S,21S,22S,E)-8-benzyl-20-((E)-but-2-en-2-yl)-14-((R)-sec-butyl)-2-isobutyl-5,7,10,17,21,25-hexamethyl-3,6,9,12,15,18,26-heptaoxo-1,19-dioxa-4,7,10,13,16-pentaazacyclohexacos-24-en-22-yl-4-(2-hydroxyethyl)piperazine-1-carboxylate]	0.25 nM	0.15 nM
C/C=C(\C)[C@H]1OC(=O)[C@@H](C)NC(=O)[C@H](C(C)CC)NC(=O)CN(C)C(=O)[C@@H](Cc2ccccc2)N(C)C(=O)[C@H](C)NC(=O)[C@@H](CC(C)C)OC(=O)/C(C)=C/C[C@H](OC(=O)NCCOCCO)[C@@H]1C (stereo partly drawn) [Compound 11, (2R,5S,8R,14S,17R,20S,21S,22S,E)-8-benzyl-20-((E)-but-2-en-2-yl)-14-((R)-see-butyl)-2-isobutyl-5,7,10,17,21,25-hexamethyl-3,6,9,12,15,18,26-heptaoxo-1,19-dioxa-4,7,10,13,16-pentaazacyclohexacos-24-en-22-yl (2-(2-hydroxyethoxy)ethyl)carbamate]	1.64 nM	1 nM
C/C=C(\C)[C@H]1OC(=O)[C@@H](C)NC(=O)[C@H]([C@H](C)CC)NC(=O)CN(C)C(=O)[C@@H](Cc2ccc(Cl)cc2)N(C)C(=O)[C@H](C)NC(=O)[C@@H](CC(C)C)OC(=O)/C(C)=C/C[C@H](O)[C@@H]1C [Compound 15, (3R,6S,12R,15S,18R,24S,25S,26S,E)-26-((E)-but-2-en-2-yl)-6-((R)-sec-butyl)-12-(4-chlorobenzyl)-24-hydroxy-18-isobutyl-3,10,13,15,21,25-hexamethyl-1,19-dioxa-4,7,10,13,16-pentaazacyclohexacos-21-ene-2,5,8,11,14,17,20-heptaone]	4.37 nM	2.62 nM
C/C=C(\C)[C@H]1OC(=O)C(C)(C)NC(=O)[C@H]([C@H](C)CC)NC(=O)CN(C)C(=O)[C@@H](Cc2ccc(C#N)cc2)N(C)C(=O)[C@H](C)NC(=O)[C@@H](CC(C)C)OC(=O)/C(C)=C/C[C@H](OC(=O)NCCCCCO)[C@@H]1C [Compound 29, (2R,5S,8R,14S,20S,21S,22S,E)-20-((E)-but-2-en-2-yl)-14-((R)-sec-butyl)-8-(4-cyanobenzyl)-2-isobutyl-5,7,10,17,17,21,25-heptamethyl-3,6,9,12,15,18,26-heptaoxo-1,19-dioxa-4,7,10,13,16-pentaazacyclohexacos-24-en-22-yl (5-hydroxypentyl)carbamate]	27.3 nM	–
